The target of data set [1] is T1, PI3Kβ (Homo sapiens, UniProt P42338).
T1 construct: purchased DiscoveRx Corporation, San Diego (contract service, KINOMEscan)
Briefly: Enzyme binding assay (KINOMEscan, DiscoveRx). As to conditions: PIK3Cβ_h, read-out: Kd PIK3Cβ_h. In outline: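 Using the KINOMEscan format, the enzyme binding affinity of each compound was determined. Each value is the inhibitor binding constant, Kd (nM).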

Data set [2] concerns the target T2, PI3Kδ (Homo sapiens, UniProt O00329).
T2 construct: purchased DiscoveRx Corporation, San Diego (contract service, KINOMEscan)
T2 sequence (O00329 1-1044): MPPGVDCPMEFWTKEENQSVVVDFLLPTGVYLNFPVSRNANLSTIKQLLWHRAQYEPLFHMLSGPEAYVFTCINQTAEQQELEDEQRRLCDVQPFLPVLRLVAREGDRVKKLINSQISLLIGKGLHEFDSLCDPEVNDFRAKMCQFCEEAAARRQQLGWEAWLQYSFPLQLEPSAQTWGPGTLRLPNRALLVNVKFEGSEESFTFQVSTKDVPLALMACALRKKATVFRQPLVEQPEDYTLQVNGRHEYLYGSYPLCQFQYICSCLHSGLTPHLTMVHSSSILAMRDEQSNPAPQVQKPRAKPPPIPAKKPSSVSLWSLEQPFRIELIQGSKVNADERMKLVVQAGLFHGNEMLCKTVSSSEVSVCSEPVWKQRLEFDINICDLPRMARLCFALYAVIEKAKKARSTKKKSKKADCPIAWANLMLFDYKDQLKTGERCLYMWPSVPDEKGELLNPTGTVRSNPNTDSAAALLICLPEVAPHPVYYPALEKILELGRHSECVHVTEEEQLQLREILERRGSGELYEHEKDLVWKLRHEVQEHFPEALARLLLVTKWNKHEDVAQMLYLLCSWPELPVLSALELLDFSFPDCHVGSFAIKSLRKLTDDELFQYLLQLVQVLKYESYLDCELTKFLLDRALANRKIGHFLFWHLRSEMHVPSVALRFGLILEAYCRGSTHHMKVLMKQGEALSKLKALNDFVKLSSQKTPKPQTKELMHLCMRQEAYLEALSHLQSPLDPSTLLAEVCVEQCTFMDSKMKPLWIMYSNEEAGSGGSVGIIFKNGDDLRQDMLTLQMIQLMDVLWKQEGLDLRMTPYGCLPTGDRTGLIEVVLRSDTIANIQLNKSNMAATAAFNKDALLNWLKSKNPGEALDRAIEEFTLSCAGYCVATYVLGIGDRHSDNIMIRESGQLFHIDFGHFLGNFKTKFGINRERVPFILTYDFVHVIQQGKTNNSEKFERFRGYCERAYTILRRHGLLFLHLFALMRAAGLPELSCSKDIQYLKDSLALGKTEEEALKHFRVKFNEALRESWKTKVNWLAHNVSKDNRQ
Briefly: Enzyme binding assay (KINOMEscan, DiscoveRx). As to conditions: PIK3Cδ_h. An outline of the steps: (§1)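 Uses KINOMEscan technology to determine binding affinity toward the kinase enzymes.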

Data set [3] has as its target T3, kinase enzymes (Homo sapiens, UniProt P42336).
T3 construct: purchased DiscoveRx Corporation, San Diego (contract service, KINOMEscan)
As to the kind of experiment: Enzyme binding assay (KINOMEscan, DiscoveRx), further kinases of Table A. Conditions: PIK3Cα_h. An outline of the steps: as §1

In data set [4] the target is T4, kinase enzymes (Homo sapiens, UniProt P42345).
T4 construct: purchased DiscoveRx Corporation, San Diego (contract service, KINOMEscan)
Described as above. As to conditions: MTOR_h. In outline:
as §1

Data set [5] has as its target T5, kinase enzymes (Homo sapiens, UniProt P48736).
T5 construct: purchased DiscoveRx Corporation, San Diego (contract service, KINOMEscan)
The data set is described as above. Conditions: PIK3Cγ_h. An outline of the steps: as §1

For data set [6], the system named is Akt phosphorylated at Ser473 in PC-3 cells. Briefly: Cellular assay: phosphorylation of Akt at Ser473 in PC-3 cells (MSD ELISA). In kind it is cell-based. Conditions: PC-3 cells, 60 min compound incubation, MSD ELISA, read-out: IC50 pAkt_S473. An outline of the steps:
(§2)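 Compound treatment of PC-3 cells lasted 60 min at 37° C (0.3% DMSO). Lysates were then applied to plates carrying capture antibodies for the relevant phospho-site, and bound Akt was detected with an electrochemiluminescent anti-total Akt antibody; IC50s derive from five-point curves.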

Data set [7] concerns Akt phosphorylated at Thr308 in PC-3 cells. Briefly: Cellular assay: phosphorylation of Akt at Thr308 in PC-3 cells (MSD ELISA). Format: cell-based. As to conditions: PC-3 cells, 60 min compound incubation, MSD ELISA, read-out: IC50 pAkt_Thr308. An outline of the steps: as §2

This passage reports Kd, IC50 and melting point results from US10526316B2, “Quinoxaline and pyridopyrazine derivatives as PI3Kβ inhibitors” (Janssen Pharmaceutica NV, priority 2015, dated 2020).

The structures appear in SMILES notation. Where two headings read alike, the source gives them in different places.

T1 sequence (P42338 whole entry): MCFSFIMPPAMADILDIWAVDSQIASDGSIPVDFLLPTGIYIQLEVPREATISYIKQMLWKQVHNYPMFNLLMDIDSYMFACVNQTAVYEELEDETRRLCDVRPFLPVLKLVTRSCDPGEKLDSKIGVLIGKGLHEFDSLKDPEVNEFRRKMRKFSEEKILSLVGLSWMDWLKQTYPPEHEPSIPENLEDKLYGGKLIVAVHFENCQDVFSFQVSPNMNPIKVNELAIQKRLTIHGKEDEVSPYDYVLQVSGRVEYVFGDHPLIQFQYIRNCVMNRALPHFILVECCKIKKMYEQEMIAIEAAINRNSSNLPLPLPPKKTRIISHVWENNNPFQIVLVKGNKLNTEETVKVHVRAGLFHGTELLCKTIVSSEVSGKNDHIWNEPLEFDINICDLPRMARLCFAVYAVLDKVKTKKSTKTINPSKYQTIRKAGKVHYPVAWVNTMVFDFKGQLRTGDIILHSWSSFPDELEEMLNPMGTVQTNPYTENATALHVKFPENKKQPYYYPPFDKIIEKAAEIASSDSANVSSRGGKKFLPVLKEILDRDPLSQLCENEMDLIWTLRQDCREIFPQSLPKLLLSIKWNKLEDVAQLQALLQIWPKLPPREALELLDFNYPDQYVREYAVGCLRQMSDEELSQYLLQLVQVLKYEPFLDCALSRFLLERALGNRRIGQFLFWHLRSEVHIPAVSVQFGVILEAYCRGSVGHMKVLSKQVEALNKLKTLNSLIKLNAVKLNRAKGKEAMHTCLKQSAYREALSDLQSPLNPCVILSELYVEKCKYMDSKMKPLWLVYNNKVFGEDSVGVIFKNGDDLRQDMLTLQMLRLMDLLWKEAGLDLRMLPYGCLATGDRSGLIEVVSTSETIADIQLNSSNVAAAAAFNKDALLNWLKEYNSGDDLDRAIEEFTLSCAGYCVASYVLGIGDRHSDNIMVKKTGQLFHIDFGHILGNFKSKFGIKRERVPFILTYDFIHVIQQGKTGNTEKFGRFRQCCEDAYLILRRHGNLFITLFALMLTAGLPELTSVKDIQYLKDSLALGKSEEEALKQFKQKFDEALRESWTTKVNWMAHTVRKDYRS
T5 sequence (P48736 whole entry): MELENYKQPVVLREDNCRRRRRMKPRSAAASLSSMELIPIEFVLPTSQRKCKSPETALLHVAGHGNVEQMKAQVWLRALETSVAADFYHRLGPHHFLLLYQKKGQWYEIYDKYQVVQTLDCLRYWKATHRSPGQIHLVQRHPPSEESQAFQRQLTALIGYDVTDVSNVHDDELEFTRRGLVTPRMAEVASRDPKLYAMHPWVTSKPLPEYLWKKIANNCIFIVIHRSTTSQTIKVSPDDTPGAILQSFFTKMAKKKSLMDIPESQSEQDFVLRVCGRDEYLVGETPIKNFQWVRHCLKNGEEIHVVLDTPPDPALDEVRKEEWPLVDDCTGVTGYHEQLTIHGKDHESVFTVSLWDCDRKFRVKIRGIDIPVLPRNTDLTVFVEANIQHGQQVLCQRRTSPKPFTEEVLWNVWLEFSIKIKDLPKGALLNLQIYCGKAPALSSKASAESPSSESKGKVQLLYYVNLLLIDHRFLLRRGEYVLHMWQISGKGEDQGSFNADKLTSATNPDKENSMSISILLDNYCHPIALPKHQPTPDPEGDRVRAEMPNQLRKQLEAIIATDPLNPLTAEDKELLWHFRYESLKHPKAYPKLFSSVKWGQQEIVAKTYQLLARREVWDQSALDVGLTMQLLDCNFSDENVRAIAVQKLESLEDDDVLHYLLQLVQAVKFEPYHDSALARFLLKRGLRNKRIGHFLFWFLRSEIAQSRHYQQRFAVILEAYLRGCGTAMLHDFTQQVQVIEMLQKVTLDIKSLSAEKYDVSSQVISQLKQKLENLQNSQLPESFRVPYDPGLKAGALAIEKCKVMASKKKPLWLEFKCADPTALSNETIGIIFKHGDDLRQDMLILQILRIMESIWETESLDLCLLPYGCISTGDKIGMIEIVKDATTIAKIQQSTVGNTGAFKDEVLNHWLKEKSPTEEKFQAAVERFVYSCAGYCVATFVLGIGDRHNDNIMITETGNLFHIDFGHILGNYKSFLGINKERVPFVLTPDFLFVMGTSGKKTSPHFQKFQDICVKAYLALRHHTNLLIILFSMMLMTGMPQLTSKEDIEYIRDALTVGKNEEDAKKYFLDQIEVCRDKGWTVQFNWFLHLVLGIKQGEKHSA
T3 sequence (P42336 whole entry): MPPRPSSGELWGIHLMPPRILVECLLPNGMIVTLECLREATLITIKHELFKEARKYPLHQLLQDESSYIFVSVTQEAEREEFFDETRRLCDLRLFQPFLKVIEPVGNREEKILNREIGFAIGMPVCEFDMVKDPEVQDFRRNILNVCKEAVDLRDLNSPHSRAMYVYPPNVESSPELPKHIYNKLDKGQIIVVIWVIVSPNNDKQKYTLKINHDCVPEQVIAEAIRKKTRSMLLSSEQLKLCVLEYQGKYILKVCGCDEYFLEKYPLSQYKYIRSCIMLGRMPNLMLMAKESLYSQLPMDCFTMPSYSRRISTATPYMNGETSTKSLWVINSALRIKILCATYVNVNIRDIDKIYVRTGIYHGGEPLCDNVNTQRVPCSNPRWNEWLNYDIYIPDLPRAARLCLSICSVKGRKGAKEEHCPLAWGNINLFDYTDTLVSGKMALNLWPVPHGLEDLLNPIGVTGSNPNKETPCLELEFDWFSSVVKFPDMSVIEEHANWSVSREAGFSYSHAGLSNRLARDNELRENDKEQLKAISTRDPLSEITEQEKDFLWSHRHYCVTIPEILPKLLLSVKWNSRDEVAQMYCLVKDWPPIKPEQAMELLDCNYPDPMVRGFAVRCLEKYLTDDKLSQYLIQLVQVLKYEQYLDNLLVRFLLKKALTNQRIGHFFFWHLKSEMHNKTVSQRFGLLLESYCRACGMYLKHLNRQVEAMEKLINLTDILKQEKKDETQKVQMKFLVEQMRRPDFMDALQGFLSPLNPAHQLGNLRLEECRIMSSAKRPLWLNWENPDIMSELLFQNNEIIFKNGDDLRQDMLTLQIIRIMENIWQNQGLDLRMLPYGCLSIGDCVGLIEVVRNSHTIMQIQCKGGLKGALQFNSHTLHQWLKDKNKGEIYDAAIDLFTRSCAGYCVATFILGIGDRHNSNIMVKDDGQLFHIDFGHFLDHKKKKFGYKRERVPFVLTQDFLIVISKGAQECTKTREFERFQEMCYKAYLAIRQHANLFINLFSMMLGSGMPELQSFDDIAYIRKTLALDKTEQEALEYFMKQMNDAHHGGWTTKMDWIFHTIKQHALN

Regarding `CN(C)C(=O)c1cc(N2CCCC2c2cc(F)cc(F)c2)c2nc(N3CCOCC3)cnc2c1` (single isomer, unassigned) [Compound 395a], the melting point was determined as 90 °C. In addition, the dissociation constant Kd in data set [1] was determined as 33 nM. In data set [2], the dissociation constant Kd was 1260 nM. The affinity in data set [3], expressed as Kd, was 3470 nM. In data set [4], this compound gave a Kd of more than 30200 nM. In data set [5], the Kd amounted to 17800 nM. The IC50 in data set [6] (Homo sapiens, PC-3, 1 h) is more than 513 nM. Further, the IC50 in data set [7] (Homo sapiens, PC-3, 1 h) is more than 513 nM.
`CC(Nc1cc(F)cc(F)c1)c1cc(CN2CC3(C2)CS(=O)(=O)C3)cc2ncc(N3CCOCC3)nc12` (single isomer, unassigned) [Compound 160]: the melting point came to 229 °C. For the same compound, the Kd in data set [1] was 2 nM. The dissociation constant (Kd) in data set [2] was 575 nM. Also, in data set [3], binding was put at a Kd of 813 nM. The dissociation constant (Kd) in data set [4] amounted to 19500 nM. The compound also came in with a Kd in data set [5] of 9770 nM. Further, in data set [6], the 50% inhibitory concentration (IC50) is 58 nM. Besides, in data set [7], the IC50 was 23 nM.
Regarding `COC(=O)c1cc(C(C)N(C)c2cccc(F)c2)c2nc(N3CCOCC3)cnc2c1` (stereo not shown) [Compound 97], the melting point was 146 °C. Moreover, in data set [1], the dissociation constant (Kd) was 214 nM. In data set [2], this compound came in with a Kd of more than 30200 nM. In addition, in data set [3], binding was characterised by a dissociation constant (Kd) of 19100 nM. In data set [4], this compound registered a Kd of more than 30200 nM. Also, in data set [5], the Kd is more than 30200 nM. Besides, the half-maximal inhibitory concentration (IC50) in data set [6] (Homo sapiens, PC-3, 1 h) was more than 513 nM. Moreover, the 50% inhibitory concentration (IC50) in data set [7] (Homo sapiens, PC-3, 1 h) was more than 513 nM.
`CC(Nc1ccc(F)c(F)c1)c1cc(C(=O)NCCN(C)C)cc2ncc(N3CCOCC3)nc12` (stereo not shown) [Compound 281] returned a melting point of 80 °C. Further, the Kd in data set [1] was 0.3 nM. In data set [2], this compound displayed a Kd of 91 nM. This compound also displayed a Kd in data set [3] of 3160 nM. The Kd in data set [4] is more than 30200 nM. Moreover, in data set [5], binding was put at a Kd of 3550 nM. For the same compound, the IC50 in data set [6] (Homo sapiens, PC-3, 1 h) was found to be 15 nM. For the same compound, in data set [7] (Homo sapiens, PC-3, 1 h), the IC50 was found to be 15 nM.
For `CN(C)CCNC(=O)c1cc(CNc2cc(F)cc(F)c2)c2nc(N3CCOCC3)cnc2c1` [Compound 394], the melting point was found to be 161 °C. Also, in data set [1], the Kd was 0.2 nM. This compound showed a dissociation constant Kd in data set [2] of 776 nM. In data set [3], the equilibrium dissociation constant (Kd) stood at 3240 nM. This compound also showed a Kd in data set [4] of 23400 nM. Besides, binding in data set [5] was put at a Kd of 12600 nM. Also, the half-inhibitory concentration (IC50) in data set [6] (Homo sapiens, PC-3, 1 h) is approximately 26.3 nM. The half-inhibitory concentration (IC50) in data set [7] (Homo sapiens, PC-3, 1 h) worked out at 18 nM.
As to `CC(Nc1cc(F)cc(F)c1)c1cc(CN2CCOCC23COC3)cc2ncc(N3CCOCC3)nc12` (single isomer, unassigned) [Compound 192], the melting point worked out at 229 °C. Also, the dissociation constant Kd in data set [1] stood at 9120 nM. In data set [2], this compound registered a Kd of more than 30200 nM. The dissociation constant (Kd) in data set [3] was more than 30200 nM. Further, the dissociation constant (Kd) in data set [4] was more than 30200 nM. In data set [5], this compound registered a Kd of more than 30200 nM. For the same compound, the half-maximal inhibitory concentration (IC50) in data set [6] was more than 513 nM. Besides, the half-inhibitory concentration (IC50) in data set [7] is more than 513 nM.
Compound `CC(C)NCCNC(=O)c1cc(C(C)Nc2cc(F)cc(F)c2)c2nc(N3CCOCC3)cnc2c1` (single isomer, unassigned) [Compound 212] showed a melting point of 204 °C. In data set [1], the dissociation constant (Kd) was 12 nM. This compound came in with a dissociation constant (Kd) in data set [2] of 3290 nM. The compound further yielded a Kd in data set [3] of 7090 nM. In addition, the Kd in data set [4] was found to be 13800 nM. Moreover, the Kd in data set [5] turned out to be 5070 nM. Moreover, the IC50 in data set [6] came to 398 nM. In addition, the IC50 in data set [7] is 328 nM.
As for `CNCCN(C)C(=O)c1cc(C(C)Nc2cc(F)c(F)c(F)c2)c2nc(N3CCOCC3)cnc2c1` (single isomer, unassigned) [Compound 335b], the melting point was found to be 80 °C. In addition, the dissociation constant Kd in data set [1] was 11 nM. In addition, in data set [2], the Kd came out at 3420 nM. In data set [3], this compound showed a Kd of 8320 nM. Also, the Kd in data set [4] is more than 30200 nM. Binding in data set [5] was put at a Kd of 13500 nM. For the same compound, the IC50 in data set [6] stood at 188 nM. For the same compound, in data set [7], the IC50 worked out at 207 nM.
